Assay results reported in patent EP1101496A1, “THERAPEUTIC AGENTS FOR ALLERGIC DISEASES” (FUJI YAKUHIN KOGYO KABUSHIKI KAISHA, priority 1998, dated 2000).

Key:
[1] = system: IgE-mediated auricle edema; assay: Auricle edema in experimental atopic dermatitis model (anti-DNP IgE sensitization, DNFB elicitation); assay type: in vivo, Balb/c mice; conditions: for % Inhibition vLPR: 7 or 8 days post-elicitation; for % Inhibition vLPR / % Inhibition IPR / % Inhibition LPR: painted on auricles 60 µg/ear/dose in ethanol twice a day; for % Inhibition IPR: 1 hour post-elicitation, 1 hour pre-elicitation to 6 days post-elicitation; for % Inhibition LPR: 1 day post-elicitation
Description: Intravenous injection of an anti-2,4-dinitrophenol (DNP) antibody (anti-DNP Ab, monoclonal IgE Ab; its antibody titer was 1 : 512 to 1 : 1024 by a rat heterologous passive cutaneous anaphylaxis reaction using a Wister rat) into a tail vein of female Balb/c mice (7-week old, body weight: 17 to 20 g, purchased from JAPAN SLC, Inc.) at a dose of […] per animal raised passive sensitization. Twenty four hours post-sensitization, 0.1% 2,4-dinitrofluorobenzene (DNFB; Nacalai Tesque, Inc.) in ethanol was painted onto both sides of a pair of mouse auricles at a dose of 10 µL per each side for elicitation.
Fresh unsensitized mice were painted with 0.1% DNFB in ethanol onto their ear in the same manner as aforementioned and served as a control group. Not only immediately prior to elicitation but also 1 hour, 5 hours, daily between Days 1 and 14, and on Day 16 post-elicitation, ear thickness was measured using a dial thickness gauge (Peacock Co.). Each degree of auricle edemas was calculated: Auricular Edema (µm)=(Ear Thickness Post-Elicitation, µm) - (Ear Thickness immediately prior to Elicitation, µm) [formula]
Balb/c mice were passively sensitized with anti-DNP IgE Ab in the same manner as in Example 1. Twenty four hours later, 0.1% DNFB in ethanol was painted onto both sides of a pair of mouse auricles at a dose of 10 µL per each side for elicitation.
Immediately prior to elicitation, 1 hour and on Day 1 post-elicitation, auricle thickness was measured in the same manner as in Example 1. Each therapeutic efficacy is recorded as a percent inhibition wherein the "auricle edema (untreated group)" is used as a control. Auricle Edema Inhibition (%) = [ 1 -(Auricle Edema (Treated Group))/(Auricle Edema (Untreated Group))] × 100 (%) [formula]
(§1) Mice were sensitized with anti-DNP IgE Ab and then elicited by painting 0.1% DNFB in ethanol onto both sides of a pair of mouse auricles at a dose of 10 µL per each side 24 hours post-sensitization in the same manner as in Example 1. […] Immediately prior to elicitation, and on Day 7 post-elicitation, auricle thickness was similarly measured. Each therapeutic efficacy is recorded as a percent inhibition wherein the auricle edema in the untreated group is used as a control.
as §1, with “(untreated group)” for “in the untreated group”
Mice were sensitized with anti-DNP IgE Ab and then elicited by painting 0.1% DNFB in ethanol onto both sides of a pair of mouse auricles at a dose of 10 µL per each side 24 hours post-sensitization in the same manner as in Example 1. […] Immediately prior to elicitation, at 1 and 4 hours and on Days 1, 3 and 7 post-elicitation, auricle thickness was similarly measured. From each auricle edema (µm) based on the auricle thickness immediately prior to elicitation, especially a prophylactically therapeutic efficacy of the test compound was evaluated.
Mice were sensitized with anti-DNP IgE Ab and then elicited by painting 0.1% DNFB in ethanol onto both sides of a pair of mouse auricles at a dose of 10 µL per each side 24 hours post-sensitization in the same manner as in Example 1. A solution of a test metalloproteinase inhibitor (Compound No. 8; 50 µg/ear/dose, twice a day) in ethanol was painted onto both sides of a pair of the mouse auricles 1 hour pre-elicitation, 0.25, 3, 4, 5 and 6 days post-elicitation (5 animals per group). Immediately prior to elicitation, at 0.5, 1 and 4 hours and on Days 1, 3 and 7 post-elicitation, auricle thickness was similarly measured. Each amount of auricle edemas was calculated (average± standard deviation). […]

Allergic Peritonitis = assay: Allergic peritonitis induced by ovalbumin; assay type: in vivo, male Balb/c mice; conditions: for inhibition of infiltration of lymphocytes/macrophages into the peritoneal cavity: ovalbumin challenge
Description: In the same manner as in Example 23, mice were actively sensitized with ovalbumin and Alum, and, on Day 14 after the initial sensitization, elicited with an inducing antigen solution. A test metalloproteinase inhibitor compound (Compound No. 20: 30 mg/kg) or a negative control solvent, physiological saline (10 mL/kg), was administered subcutaneously to each animal 6, 3 hours, and 5 minutes pre-induction, 3, and 6 hours post-induction. At 24 hours post-induction, a physiological saline (containing heparin) was injected intraperitoneally at 4 mL/mouse for peritoneal lavage. An aliquot of the retrieved washout medium was taken, and not only measured for a PEC density but also stained for PEC followed by fractional counting. Each effect of the compound on the total PEC number (PEC density× 4 mL), and eosinophils and lymphocytes/macrophages is shown in Table 15. Almost similarly to Examples 22 to 24, the total PEC number and the numbers of eosinophils and lymphocytes/macrophages in the peritoneal cavity are reduced.
Each efficacy on intraperitoneal exudation of neutrophils was examined according to the methods as disclosed in Ouchi et al., "Seibutsu Yakukagaku Jikken Koza, Ensho To Allergy (Inflammation and Allergy) I-3", pp.139 to 151, Hirokawa Publishing Co., Japan and Spicer et al., The International Archives of Allergy and Applied Immunology, 81: 81 to 84, 1986.
In the same manner as in Example 23, male Balb/c mice were sensitized with ovalbumin and an aluminum hydroxide gel, and, on Day 14 after the initial sensitization, elicited with an antigen solution to raise allergic peritonitis. Each test metalloproteinase inhibitor (Compound No. 20 or 21: 30 mg/kg) or a negative control solvent, physiological saline (10 mL/kg), was administered subcutaneously to each animal 1 hour prior to induction, and 3 hours post-induction. At 6 hours post-induction, peritoneal lavage was done similarly to Example 22, measured for a PEC density, and counted for the total PEC number. In the same manner as in Example 22, PEC was stained, and subjected to fractional counting under a microscope with classification into neutrophils, eosinophils, lymphocytes/macrophages and basophils based on their form and stain nature. Each cell ratio was as follows: 2.3% (neutrophil), 1.1% (eosinophil), 95.4% (lymphocyte/macrophage), and 1.2% (basophil) for unsensitized/physiological saline-administered mice; and 5.7% (neutrophil), 11.9% (eosinophil), 81.3% (lymphocyte/macrophage), and 1.1% (basophil) for sensitized/physiological saline-administered mice. By a similar line of reasoning in Example 22, basophils were excluded from subjects to be examined. In the same manner as in Example 22, intraperitoneal exudation inhibition rates were calculated and expressed as the therapeutic efficacies.

[2] = 30 mg/kg s.c. 6, 3 hours and 5 minutes pre-induction, 3 and 6 hours post-induction, 24 hours post-induction (Example 25)
[3] = 30 mg/kg s.c. 1 hour prior to and 3 hours post-induction, 6 hours post-induction (Example 26)

| SMILES | inhibitory efficacy on IgE-mediated auricle edema in IPR, LPR and vLPR (FIG. 6) ([1]; 60 mg/kg s.c. only 24 and 2 hours prior to elicitation, compared with prednisolone 10 mg/kg i.p.) | inhibitory efficacy on IgE-mediated auricle edema in IPR, LPR and vLPR (FIG. 7) ([1]; painted on auricles, 50 µg/ear/dose in ethanol, 1 hour pre-elicitation and 0.25, 3, 4, 5, 6 days post-elicitation) | inhibition of infiltration of lymphocytes/macrophages into the peritoneal cavity (Allergic Peritonitis; 30 mg/kg i.p. 5 minutes prior to and 3 and 6 hours post-induction (Example 23)) [%] | inhibition of infiltration of lymphocytes/macrophages into the peritoneal cavity (Allergic Peritonitis; 30 mg/kg s.c. 6 hours and 5 minutes prior to induction, 24 hours after induction (Example 24)) [%] | % Inhibition vLPR [1] [%] | % Inhibition IPR [1] [%] | % Inhibition LPR [1] [%] | Leukocyte exudate inhibition rate (%) (Macrophages)/(Lymphocytes) (Allergic Peritonitis; [2]) | Leukocyte exudate inhibition rate (%) Eosinophils (Allergic Peritonitis; [2]) [%] | Leukocyte exudate inhibition rate (%) Total PEC Number (Allergic Peritonitis; [2]) [%] | Leukocyte exudate inhibition rate (%) Eosinophils (Allergic Peritonitis; [3]) [%] | Leukocyte exudate inhibition rate (%) Neutrophils (Allergic Peritonitis; [3]) [%] | Leukocyte exudate inhibition rate (%) Total PEC Number (Allergic Peritonitis; [3]) [%] |
| --- | --- | --- | --- | --- | --- | --- | --- | --- | --- | --- | --- | --- | --- |
| CNC(=O)[C@H](Cc1ccc(NC(=N)N)cc1)NC(=O)[C@H](CC(C)C)C(CCCc1ccccc1)C(=O)NO (single isomer, unassigned) [Compound No. 8, N-[4-(N-hydroxyamino)-2(R)-isobutyl-3(R or S)-(3-phenyltrimethylene)succinyl]-L-4'-guanidophenylalanine-N-methylamide 1 acetate] | edema-inhibitory activity equivalent to that of prednisolone in IPR and slightly and markedly higher than that of prednisolone in LPR and vLPR | endowed with an inhibitory activity on edemas in any of IPR, LPR, and vLPR | 74.9 | 91.2 |  |  |  |  |  |  |  |  |  |
| CNC(=O)[C@H](Cc1ccc(NC(=N)N)cc1)NC(=O)[C@H](CC(C)C)C(CCCc1ccccc1)C(=O)NO.Cl (single isomer, unassigned) [Compound No. 20, N-[4-(N-hydroxyamino)-2(R)-isobutyl-3(R or S)-(3-phenyltrimethylene)succinyl]-L-4'-guanidophenylalanine-N-methylamide 1 hydrochloride] |  |  |  |  | 31 | 56 | 58 | 55.1 | 38.9 | 49.6 | 38.4 | 41.4 | 40.9 |
| CNC(=O)[C@H](Cc1ccc(N=C(N)N)cc1)NC(=O)[C@@H](CC(=O)NO)CC(C)C.O=S(=O)(O)O [Compound No. 21, N-[4-(N-hydroxyamino)-2(R)-isobutylsuccinyl]-L-4'-guanidophenylalanine-N-methylamide 1 sulfate] |  |  |  |  | 35 | 31 | 22 |  |  |  |  | 27.1 | 38.6 |
